One test has as its system Akt. As to the kind of experiment: phospho-Akt in NCI-H596 hu-HGF-Tg-SCID xenograft tumors (immunoblot). Format: in vivo, human. To be noted: MetMAb 30 mg/kg 24 h, erlotinib 150 mg/kg 6 h prior to harvest, average of 5 animals. Here is the method: NCI-H596 hu-HGF-Tg-SCID xenograft tumors: NCI-H596 xenografts were established in hu-HGF-Tg-SCID mice as described in Example 4. Tumors were allowed to grow to 200-300 mm^3 prior to treatment. Dosing was performed as described in Table 8. Briefly, MetMAb (30 mg/kg) or MetMAb buffer was dosed at time zero hours (0 hr) and methylcellulose tween vehicle (MCT) or erlotinib (150 mg/kg) was dosed at time 18 hours (18 hr). Mice were euthanized and tumors and plasma collected at time 24 hours (24 hr). Tumors were snap frozen in liquid nitrogen and then kept at −70° C. until they were processed for immunoprecipitation and immunoblotting.
Immunoprecipitations and Immunoblotting: To process tumors for protein analysis, tumors were first homogenized using a glass dounce with lysis buffer (Cell Signaling Technology, Inc., Danvers, Mass.), supplemented with 1 mM PMSF, additional protease inhibitor cocktail, and phosphatase inhibitor cocktail I and II (Sigma, Inc., St. Louis, Mo.). […] Protein concentrations were determined using the BCA™ Protein Assay Kit (Pierce, Inc., Rockford, Ill.) and samples were immunoblotted. […] Samples were then analyzed by SDS-PAGE and immunoblotting. […] Immunoblots were imaged and phospho-protein levels were quantified and normalized to total protein levels (e.g. pEGFR over total EGFR) using an Odyssey imager (LI-COR Biosciences, Lincoln, Nebr.). […]
In general terms: A xenograft is tissue or cells of one species grown in another, often human tumour cells in immunodeficient mice.

Another test deals with ERK-1/2. Briefly: phospho-ERK-1/2 in NCI-H596 hu-HGF-Tg-SCID xenograft tumors (immunoblot). Format: in vivo, human. Conditions: MetMAb 30 mg/kg 24 h, erlotinib 150 mg/kg 6 h prior to harvest, average of 5 animals. Here is the method: Tumors were allowed to grow to 200-300 mm^3 prior to treatment. Dosing was performed as described in Table 8. Briefly, MetMAb (30 mg/kg) or MetMAb buffer was dosed at time zero hours (0 hr) and methylcellulose tween vehicle (MCT) or erlotinib (150 mg/kg) was dosed at time 18 hours (18 hr). Mice were euthanized and tumors and plasma collected at time 24 hours (24 hr). Tumors were snap frozen in liquid nitrogen and then kept at −70° C. until they were processed for immunoprecipitation and immunoblotting.
Immunoprecipitations and Immunoblotting: To process tumors for protein analysis, tumors were first homogenized using a glass dounce with lysis buffer (Cell Signaling Technology, Inc., Danvers, Mass.), supplemented with 1 mM PMSF, additional protease inhibitor cocktail, and phosphatase inhibitor cocktail I and II (Sigma, Inc., St. Louis, Mo.). Lysates were incubated on ice for one hour and then centrifuged at 14,000×g for five minutes and supernatants collected. Protein concentrations were determined using the BCA™ Protein Assay Kit (Pierce, Inc., Rockford, Ill.) and samples were immunoblotted. […] Samples were then analyzed by SDS-PAGE and immunoblotting. […] Immunoblots were imaged and phospho-protein levels were quantified and normalized to total protein levels (e.g. pEGFR over total EGFR) using an Odyssey imager (LI-COR Biosciences, Lincoln, Nebr.). […]

Where “and” joins values, the source holds several entries; their conditions need not be identical. Equal values may be shown once.

`C#Cc1cccc(Nc2ncnc3cc(OCCOC)c(OCCOC)cc23)c1` [erlotinib, N-(3-ethynylphenyl)-6,7-bis(2-methoxyethoxy)-4-quinazolinamine]: the “pAkt/total Akt” value with Akt (listed as Erlotinib) is 45% (+/−25.7%) % of vehicle control and 45 (±25.7) % of vehicle control. The “pERK1/2/total ERK1/2” value with ERK-1/2 (listed as Erlotinib) is 39% (+/−8.9%) % of vehicle control and 39 (±8.9) % of vehicle control.

B1: MetMAb: Anti-c-met monovalent monoclonal antibody MetMAb (rhuOA5D5v2) (WO2007/063816) (antibody, chains of the INN, looked up, V domains shown)
VH: EVQLVESGGGLVQPGGSLRLSCAASGYTFTSYWLHWVRQAPGKGLEWVGMIDPSNSDTRFNPNFKDRFTISADTSKNTAYLQMNSLRAEDTAVYYCATYRSYVTPLDYWGQGTLVTVSS
VL: DIQMTQSPSSLSASVGDRVTITCKSSQSLLYTSSQKNYLAWYQQKPGKAPKLLIYWASTRESGVPSRFSGSGSGTDFTLTISSLQPEDFATYYCQQYYAYPWTFGQGTKVEIK
modifications: one-armed
As to B1, in the test with Akt, the “pAkt/total Akt” value was 72% (+/−27.9%) % of vehicle control and 72 (±27.9) % of vehicle control. In addition, the “pERK1/2/total ERK1/2” value with ERK-1/2 was 72% (+/−40.3%) % of vehicle control and 72 (±40.3) % of vehicle control.

Values taken from US20160303127A1, “COMBINATION THERAPY WITH C-MET AND EGFR ANTAGONISTS” (Genentech, Inc., priority 2008, published 2016).
